Molecules are shown by their SMILES.

Experiment [1] can be described thus: microbe, parasite or virus in culture. The conditions noted are these: Mycobacterium tuberculosis, 96 h, read-out: pIC50 (converted).
Experiment [2] in a line: microbe, parasite or virus in culture. To be noted: Mycobacterium tuberculosis, 72 h, read-out: pIC50 (converted).

Consider `O=c1c2ccccc2nc2n1C(CSc1ccc(F)cc1)CN2` (stereo unspecified), for which the IC50 in experiment [1] and in experiment [2] was > 50.1 µM throughout.

Regarding `O=C(c1ccnn1COc1ccc(Cl)cc1)N1CCCC1`, the IC50 in experiment [1] and in experiment [2] was > 50.1 µM each time.

Regarding `Cc1cccc(NC(=O)C(C)Oc2ccc3c(c2)OCO3)n1` (stereo unspecified), the results for the IC50 in experiment [1] and in experiment [2] were 5.27 µM and 16 µM, respectively.

On to `Cc1csc(NC(=O)C(C)Oc2ccc3c(c2)OCO3)n1` (stereo unspecified), for which the IC50 in experiment [1] was 1.63 µM; in experiment [2], 30.5 µM.

For `Cc1ccc(CNC(=O)c2ccc(F)cc2)o1`, the IC50 was 47.3 µM in experiment [1] and 19.6 µM in experiment [2].

As to `CCCn1nccc1C(=O)Nc1nc(C)c(C)s1`, the IC50 in experiment [1] was 47.4 µM; in experiment [2], > 50.1 µM.

Take `Nc1nnnn1NCc1cccc(Cl)c1Cl`: the IC50 in experiment [1] and in experiment [2] was > 50.1 µM in each case.

On to `CCOc1ccc(N2CCCN=C2NC(=O)c2ccc(Cl)cc2)cc1`, for which the IC50 in experiment [1] and in experiment [2] was > 50.1 µM throughout.

As to `O=C1CNc2ncnc(N3CCN(c4ccccc4F)CC3)c2N1`, the IC50 in experiment [1] and in experiment [2] was > 50.1 µM each time.

With `CCS(=O)(=O)N1CCCCC1c1nc(C(C)C)no1` (stereo unspecified), the IC50 in experiment [1] and in experiment [2] was > 50.1 µM each time.

On to `Cc1cc2[nH]c(O)nc2cc1NCc1ccc(F)cc1`, for which the IC50 in experiment [1] was > 50.1 µM; in experiment [2], 24.3 µM.

As for `COc1ccc2nnc(C(=O)NCC3CCCC3)nc2c1`, the IC50 was > 50.1 µM in experiment [1] and 12.3 µM in experiment [2].

On to `O=C(NCC1CC1)c1nnc2ccc(Cl)cc2n1`, for which the IC50 in experiment [1] was 11.4 µM; in experiment [2] it was 5.59 µM.

Regarding `Cc1ccc2nnc(C(=O)NCC3CCCC3)nc2c1`, the IC50 in experiment [1] was 13.4 µM; in experiment [2], 10.4 µM.

As for `NCc1n[nH]c(-c2ccc(Br)cc2)n1`, the IC50 in experiment [1] was > 50.1 µM; in experiment [2], 24.3 µM.

`CCn1nc(C)c2nc(C)nc(NCCc3ccc(C)cc3)c21`: the IC50 in experiment [1] was 42.5 µM; in experiment [2] it was 47.4 µM.

`CCn1nc(C)c2nc(C)nc(NCCc3ccccc3)c21`: the IC50 in experiment [1] was > 50.1 µM; in experiment [2], 32.5 µM.

For `CCCc1nc(N(C)Cc2ccco2)c2c(n1)c(C)nn2CC`, the IC50 is 12 µM in experiment [1] and 25.2 µM in experiment [2].

For the compound `CCCc1nc(N2CCCC(C)C2)c2c(n1)c(C)nn2CC` (stereo unspecified), the IC50 in experiment [1] was > 50.1 µM; in experiment [2] it was 24.2 µM.

Turning to `CCCc1nc(N2CCCCCC2)c2c(n1)c(C)nn2CC`, the values for the IC50 in experiment [1] and in experiment [2] were 43.2 µM and 23.6 µM, respectively.

Turning to `CCCc1nc(N2CCCCC2)c2c(n1)c(C)nn2CC`, the IC50 in experiment [1] was 39.3 µM; in experiment [2], 38.4 µM.

`COc1ccc(CNc2nc(C3CC3)nc3c(C)nn(C)c23)cc1`: the values for the IC50 in experiment [1] and in experiment [2] were 9.46 µM and 27.3 µM, respectively.

As to `CCOC(=O)c1cc(C(C)(O)CCC=C(C)C)on1` (stereo unspecified), the values for the IC50 in experiment [1] and in experiment [2] were 25.8 µM and 36.4 µM, respectively.

Turning to `CC1CCCCN1C(=O)COCc1nc(-c2ccncc2)no1` (stereo unspecified), the IC50 in experiment [1] and in experiment [2] was > 50.1 µM throughout.

As for `CC(C)c1ccc(OCn2ccc(C(=O)N3CCCC3)n2)cc1`, the IC50 in experiment [1] was 24.5 µM; in experiment [2] it was 26.5 µM.

Turning to `O=c1c(Cc2ccccc2)c(O)ccn1Cc1cccs1`, the IC50 in experiment [1] and in experiment [2] was > 50.1 µM each time.

`c1ccc(-c2nc(CCNCc3ccncc3)co2)cc1`: the IC50 in experiment [1] and in experiment [2] was > 50.1 µM in each case.

For `Cc1cncc(NCc2ccccc2N2CCOCC2)c1`, the results for the IC50 in experiment [1] and in experiment [2] were 6.18 µM and 6.63 µM, respectively.

Take `CN(C)S(=O)(=O)c1ccc(F)c(NC(=O)COCC2CC2)c1`: the IC50 in experiment [1] was > 50.1 µM; in experiment [2] it was 10.3 µM.

Regarding `O=C(COCC1CC1)Nc1cc(S(=O)(=O)NC2CC2)ccc1F`, the IC50 was > 50.1 µM in experiment [1] and 45.8 µM in experiment [2].

With `CC1CCN(S(=O)(=O)NC(C)Cc2ccco2)CC1` (stereo unspecified), the IC50 in experiment [1] and in experiment [2] was > 50.1 µM throughout.

Consider `Cc1nc(CSCCC(=O)Nc2cccc(N3CCNC3=O)c2)cs1`, for which the IC50 in experiment [1] and in experiment [2] was > 50.1 µM throughout.

As for `COc1cccc(C(CO)NC(=O)Cc2ccc(F)c(Br)c2)c1` (stereo unspecified), the IC50 in experiment [1] and in experiment [2] was > 50.1 µM throughout.

As to `Cc1cccc(-c2ccc(C(=O)N3CCSCC3)c(=O)[nH]2)c1`, the IC50 is > 50.1 µM in experiment [1] and 36.1 µM in experiment [2].

Regarding `Cc1ccc(OCC(=O)NC2(C#N)CCSCC2)cc1C`, the figures for the IC50 in experiment [1] and in experiment [2] were 2.04 µM and 20.7 µM, respectively.

As for `O=c1oc(-c2ccc(F)cc2)nn1CC1CCCCO1` (stereo unspecified), the results for the IC50 in experiment [1] and in experiment [2] were > 50.1 µM and 0.609 µM, respectively.

Consider `COc1ccc(CN(C(=O)C2CCCS2)c2ccncc2)cc1` (stereo unspecified), for which the IC50 in experiment [1] and in experiment [2] was > 50.1 µM in each case.

As for `CN(CCc1nc(-c2cccc(Cl)c2)no1)CCn1cccn1`, the IC50 is 41.6 µM in experiment [1] and 4.75 µM in experiment [2].

For `CCc1nnsc1C(=O)NC(CC(C)C)C(=O)OC` (stereo unspecified), the IC50 in experiment [1] and in experiment [2] was > 50.1 µM in each case.

Turning to `CCc1noc(CNc2cc3c(cc2Cl)OCCO3)n1`, the IC50 in experiment [1] is 8.97 µM; in experiment [2], 26.8 µM.

In the case of `CC(C)n1nccc1NC(=O)NCCc1nc2ccc(F)cc2n1C`, the IC50 in experiment [1] and in experiment [2] was > 50.1 µM each time.

Turning to `CCc1nnc(NC(=O)N(CCOC)Cc2ccc(C)o2)s1`, the IC50 in experiment [1] and in experiment [2] was > 50.1 µM each time.

As for `O=C(CCSc1ccc(F)cc1)N1CCN(c2cnccn2)CC1`, the IC50 in experiment [1] and in experiment [2] was > 50.1 µM each time.

As to `CC(C)N(C)S(=O)(=O)N(Cc1cccs1)Cc1cccs1`, the IC50 in experiment [1] was > 50.1 µM; in experiment [2] it was 24.8 µM.

For the compound `CC(Nc1ccc(Br)cc1)c1nc(C2CC2)no1` (stereo unspecified), the IC50 in experiment [1] was 0.994 µM; in experiment [2] it was 2.01 µM.

Take `O=C(c1ccc(NCc2cccc(F)c2)cc1)N1CCCC1`: the IC50 in experiment [1] and in experiment [2] was > 50.1 µM throughout.

For `CC(Nc1ccc2c(c1)CCC2)c1nc(C2CC2)no1` (stereo unspecified), the values for the IC50 in experiment [1] and in experiment [2] were 0.183 µM and 0.704 µM, respectively.

As for `Cc1noc(C(C)Nc2ccc3c(c2)CCC3)n1` (stereo unspecified), the IC50 in experiment [1] was 3.32 µM; in experiment [2] it was 5.68 µM.

For the compound `Cc1cc(CN(C)Cc2csc(-c3ccc(C(C)C)cc3)n2)no1`, the IC50 was 37.9 µM in experiment [1] and > 50.1 µM in experiment [2].

Consider `CC(C)Oc1ccc(C(=O)NCc2ccnc(N3CCCC3)c2)cn1`, for which the IC50 in experiment [1] is 45.1 µM; in experiment [2], 36.9 µM.

Turning to `COC(=O)CSCc1nc(-c2ccc(Cl)cc2)no1`, the IC50 in experiment [1] and in experiment [2] was > 50.1 µM throughout.

As for `CCOCC(=O)NC(C)Cc1ccccc1Br` (stereo unspecified), the IC50 in experiment [1] was 0.742 µM; in experiment [2], 0.928 µM.

In the case of `CCc1nc2n(n1)CC(NCc1nc(C)c(C)o1)CC2` (stereo unspecified), the IC50 in experiment [1] and in experiment [2] was > 50.1 µM in each case.

In the case of `CCCc1cc(C(=O)NCCCC(=O)N2Cc3ccccc3C2)[nH]n1`, the IC50 in experiment [1] and in experiment [2] was > 50.1 µM in each case.

For `Cc1nc(-c2ccc(NCCc3ccc(O)cc3)nc2)[nH]c(=O)c1C`, the results for the IC50 in experiment [1] and in experiment [2] were 32.1 µM and 42.1 µM, respectively.

In the case of `COC(=O)COc1ccc(-c2noc(C3CCCO3)n2)cc1` (stereo unspecified), the IC50 in experiment [1] was 18.6 µM; in experiment [2], 31.9 µM.

On to `O=C(c1cc2c([nH]c1=O)CCC2)N1CCCC1c1ccccc1` (stereo unspecified), for which the IC50 in experiment [1] and in experiment [2] was > 50.1 µM each time.

As for `CCN(C(=O)CN1CCCC1Cc1ccccc1)c1ccccc1` (stereo unspecified), the IC50 is > 50.1 µM in experiment [1] and 44.2 µM in experiment [2].

`CN(C(=O)CN1CCCC1Cc1ccccc1)c1ccccc1` (stereo unspecified): the IC50 in experiment [1] was > 50.1 µM; in experiment [2], 33 µM.

As to `Cc1cc(CN2CCN(C(=O)CCc3cccs3)CC2)on1`, the values for the IC50 in experiment [1] and in experiment [2] were 10.5 µM and 4.03 µM, respectively.

As for `COc1ccc(NC(=O)CNc2ccc(Br)cc2F)cc1`, the IC50 in experiment [1] and in experiment [2] was > 50.1 µM throughout.

On to `COC(=O)[C@H](C)NC(=O)c1cc(-c2cccc(Cl)c2)no1`, for which the values for the IC50 in experiment [1] and in experiment [2] were 26 µM and 42.5 µM, respectively.

With `COc1cccc(CN(C)C(=O)CSc2ccc3c(c2)OCCO3)c1`, the IC50 in experiment [1] is 25 µM; in experiment [2], > 50.1 µM.

As for `c1cnnc(N2CCCC2CNCc2nc3ccccc3o2)c1` (stereo unspecified), the figures for the IC50 in experiment [1] and in experiment [2] were 32.7 µM and 29.6 µM, respectively.

Regarding `CS(=O)(=O)NCC1CCCN(C(=O)Nc2ccccc2Cl)C1` (stereo unspecified), the IC50 in experiment [1] and in experiment [2] was > 50.1 µM in each case.

In the case of `Cc1nccc(C(=O)N2CCCN(Cc3cnn(C(C)C)c3)CC2)n1`, the IC50 in experiment [1] and in experiment [2] was > 50.1 µM each time.

As to `CC(=O)N1CCCC1c1nnc2n1CCCCC2` (stereo unspecified), the IC50 in experiment [1] and in experiment [2] was > 50.1 µM each time.

In the case of `Cc1ccccc1C(=O)N1CC[C@@H]2CN(c3ncccn3)CCO[C@@H]2C1`, the IC50 in experiment [1] and in experiment [2] was > 50.1 µM in each case.

As for `O=C(c1cccs1)N1CCC2(CC1)CN(c1ccsc1)C(=O)CO2`, the IC50 in experiment [1] and in experiment [2] was > 50.1 µM each time.

Regarding `COc1cccc(C(=O)N2CCOC3(CCCN(C(C)=O)C3)C2)c1` (stereo unspecified), the IC50 in experiment [1] and in experiment [2] was > 50.1 µM each time.

On to `CC(C)CCN1Cc2c(C(=O)O)ncn2-c2ccccc2S1(=O)=O`, for which the IC50 in experiment [1] and in experiment [2] was > 50.1 µM in each case.

Take `COc1ccc(CN2CC[C@@H](O)[C@@H]2Cc2cnn(C)c2)cc1`: the IC50 in experiment [1] and in experiment [2] was > 50.1 µM each time.

In the case of `O=C1[C@H]2CN(Cc3ccco3)C[C@H]2CN1c1ccsc1`, the IC50 is 14.2 µM in experiment [1] and 8.77 µM in experiment [2].

Take `CN(C)CCNC(=O)c1ccn(-c2ccc3ccccn23)n1`: the IC50 in experiment [1] and in experiment [2] was > 50.1 µM each time.

For the compound `Cn1ccnc1CN1CCC2(CC(=O)N(c3cncnc3)C2)C1` (stereo unspecified), the IC50 in experiment [1] and in experiment [2] was > 50.1 µM in each case.

Take `CN(C)CCN1CCOCC2(C1)CN(Cc1ccsc1)CCO2` (stereo unspecified): the IC50 in experiment [1] and in experiment [2] was > 50.1 µM throughout.

For the compound `Cc1ccc(N(CC(=O)c2ccc(Br)cc2)C2=NCCCCC2)cc1`, the IC50 in experiment [1] is 23.1 µM; in experiment [2] it was 11.1 µM.

As to `CCOc1ccc(N(CC(=O)c2ccccc2)C2=NCCCCC2)cc1`, the IC50 in experiment [1] was 27.6 µM; in experiment [2], 22.4 µM.

The values are drawn from ChEMBL document CHEMBL3988442, “University of Dundee, Small-Polar-MMV Screening Library” (2021).
